The target in one series is BRD4 BD1 (Homo sapiens (Human), UniProt O60885). The experiment in a line: Bromodomain binding assay (T7 phage display, qPCR), BRD4 BD1. The note with it: read-out: BRD4 BD1 Kd. As for the experimental part:
T7 phage strains displaying bromodomains were grown in parallel in 24-well blocks in an E. coli host derived from the BL21 strain. E. coli were grown to log-phase and infected with T7 phage from a frozen stock (multiplicity of infection=0.4) and incubated with shaking at 32° C. until lysis (90-150 min). The lysates were centrifuged (5,000×g) and filtered (0.2 μm) to remove cell debris. Streptavidin-coated magnetic beads were treated with biotinylated small molecule or acetylated peptide ligands for 30 min at RT to generate affinity resins for bromodomain assays. The ligated beads were blocked with excess biotin and washed with blocking buffer (SeaBlock (Pierce), 1% BSA, 0.05% Tween 20, 1 mM DTT) to remove unbound ligand and to reduce non-specific phage binding. Binding reactions were assembled by combining bromodomains, ligated affinity beads, and test compounds in 1× binding buffer (16% SeaBlock, 0.32×PBS, 0.02% BSA, 0.04% Tween 20, 0.004% Sodium azide, 7.9 mM DTT). Test compounds were prepared as 1000× stocks in 100% DMSO and subsequently diluted 1:25 in MEG. The compounds were then diluted directly into the assays such that the final concentrations of DMSO and MEG were 0.1% and 2.4%, respectively. All reactions were performed in polypropylene 384-well plates in a final volume of 0.02 ml. The assay plates were incubated at RT with shaking for 1 hr and the affinity beads were washed with wash buffer (1×PBS, 0.05% Tween 20). The beads were then re-suspended in elution buffer (1×PBS, 0.05% Tween 20, 2 μM non-biotinylated affinity ligand) and incubated at RT with shaking for 30 min. The bromodomain concentration in the eluates was measured by quantitative polymerase chain reaction (qPCR).
An 11-point 3-fold serial dilution of each test compound was prepared in 100% DMSO at 1000× final test concentration. All compounds were distributed by acoustic transfer (non-contact dispensing) in 100% DMSO. The compounds were then diluted directly into the assays such that the final concentration of DMSO was 0.09%. Most dissociation constants were determined using a compound top concentration=10,000 nM. If the initial dissociation constant determined was <0.169 nM (the lowest concentration tested), the measurement was repeated with a serial dilution starting at a lower top concentration.
The same bromodomain assay procedure as that outlined above was used. Example compounds were screened at 30 times their Kd, and results for primary screen binding interactions are reported as ‘% Ctrl’, where lower numbers indicate stronger hits in the matrix.
A general note: Real-time PCR tracks product formation cycle by cycle.

The test system of the next series is human liver hepatocytes. In words: Intrinsic clearance in human liver hepatocytes. It is filed as in vitro ADME. The note with it: human cryopreserved hepatocytes, 0.5 μM test compound. As for the experimental part: Vials of human cryopreserved hepatocytes, supplied by Life Technologies, were thawed according to manufacturer's instructions and cells re-suspended in Williams Medium E (WME) containing cell maintenance supplement pack (CM4000, Life Technologies). Hepatocytes were incubated in suspension (0.5 million cells/mL) in 48 well non-collagen coated cell culture plates for 10 min at 37° C., 5% CO2. Upon addition of an equal volume of supplemented WME containing 1 μM test compound, an aliquot of incubation solution was removed to acetonitrile containing internal standard (final concentration 0.5 μM test compound and a cell density of 0.25 million cells/mL). Similarly, aliquots were removed at 3, 6, 9, 15, 30, 45, 60, 90 and 120 min. 100 μL of 80:20 water:acetonitrile was added to all samples and the analysis plate was centrifuged for 10 min at RT prior to injection and analysis of samples by UPLC-MS/MS. The response (area ratio of test compound to internal standard) was plotted against time using an exponential decay model from which rate of disappearance was calculated.

The source of these data is patent US12384777B2 (Tay Therapeutics Limited, priority 2019, dated 2025).

pKd: −log10 of the molar value.

As a reminder, the pKd is the negative decadic logarithm of the Kd, by convention in mol/L. With `CCCOc1ccc(O)cc1-c1cn(C)c(=O)c2[nH]ccc12` [Example 9, 4-(5-hydroxy-2-propoxyphenyl)-6-methyl-1,6-dihydro-7H-pyrrolo[2,3-c]pyridin-7-one], the pKd on BRD4 BD1 was 7.00 to 8.00. Also, the “Intrinsic clearance, % Liver Blood Flow” value in the series on human liver hepatocytes is recorded as 95 % Liver Blood Flow. For `Cn1cc(-c2cc(O)ccc2OC2CCCCC2)c2cc[nH]c2c1=O` [Example 11, 4-(2-(cyclohexyloxy)-5-hydroxyphenyl)-6-methyl-1,6-dihydro-7H-pyrrolo[2,3-c]pyridin-7-one] the same measures were ≥ 8.00 and 97 % Liver Blood Flow. Regarding `COC1CCC(Oc2ccc(O)cc2-c2cn(C)c(=O)c3[nH]ccc23)CC1` (stereo not shown) [Example 12, 4-(5-hydroxy-2-((4-methoxycyclohexyl)oxy)phenyl)-6-methyl-1,6-dihydro-7H-pyrrolo[2,3-c]pyridin-7-one], the pKd on BRD4 BD1 is ≥ 8.00. Moreover, the “Intrinsic clearance, % Liver Blood Flow” value in the series with human liver hepatocytes came to 82 % Liver Blood Flow. Regarding `Cn1cc(Cc2ccccc2)c(-c2cn(C)c(=O)c3[nH]ccc23)cc1=O` [Example 13, 4-(5-benzyl-1-methyl-2-oxo-1,2-dihydropyridin-4-yl)-6-methyl-1,6-dihydro-7H-pyrrolo[2,3-c]pyridin-7-one], the pKd on BRD4 BD1 is 6.00 to 7.00. The “Intrinsic clearance, % Liver Blood Flow” value in the series on human liver hepatocytes came to 34 % Liver Blood Flow.

`Cn1cc(-c2ccnn2Cc2ccccc2)c2cc[nH]c2c1=O` [Example 14, 4-(1-benzyl-1H-pyrazol-5-yl)-6-methyl-1,6-dihydro-7H-pyrrolo[2,3-c]pyridin-7-one]: the pKd on BRD4 BD1 was 6.00 to 7.00. As to `Cn1cc(-c2nccn2Cc2ccccc2)c2cc[nH]c2c1=O` [Example 15, 4-(1-benzyl-1H-imidazol-2-yl)-6-methyl-1,6-dihydro-7H-pyrrolo[2,3-c]pyridin-7-one], the pKd at BRD4 BD1 was 6.00 to 7.00.

For the compound `Cn1cc(-c2ncnn2Cc2ccccc2)c2cc[nH]c2c1=O` [Example 16, 4-(1-benzyl-1H-1,2,4-triazol-5-yl)-6-methyl-1,6-dihydro-7H-pyrrolo[2,3-c]pyridin-7-one], the negative logarithm of the Kd (pKd) at BRD4 BD1 is 6.00 to 7.00.

On to `Cn1cc(-c2scnc2Cc2ccccc2)c2cc[nH]c2c1=O` [Example 17, 4-(4-benzylthiazol-5-yl)-6-methyl-1,6-dihydro-7H-pyrrolo[2,3-c]pyridin-7-one], for which, at BRD4 BD1, the negative logarithm of the Kd (pKd) was 7.00 to 8.00. Consider `Cn1cc(-c2scnc2Oc2ccccc2O)c2cc[nH]c2c1=O` [Example 19, 4-(4-(2-hydroxyphenoxy)thiazol-5-yl)-6-methyl-1,6-dihydro-7H-pyrrolo[2,3-c]pyridin-7-one], for which the pKd at BRD4 BD1 was 6.00 to 7.00.

In the case of `Cn1cc(-c2scnc2Oc2ccccc2O)ccc1=O` [Example 21, 5-(4-(2-hydroxyphenoxy)thiazol-5-yl)-1-methylpyridin-2(1H)-one], the pKd on BRD4 BD1 was 6.00 to 7.00. On to `Cn1cc(Oc2ccccc2O)c(-c2cn(C)c(=O)c3[nH]ccc23)cc1=O` [Example 22, 4-(5-(2-hydroxyphenoxy)-1-methyl-2-oxo-1,2-dihydropyridin-4-yl)-6-methyl-1,6-dihydro-7H-pyrrolo[2,3-c]pyridin-7-one], for which the pKd at BRD4 BD1 is 6.00 to 7.00. Further, the “Intrinsic clearance, % Liver Blood Flow” value with human liver hepatocytes is on record as <34 % Liver Blood Flow. In the same order, the values of `COc1cccc(Oc2cn(C)c(=O)cc2-c2cn(C)c(=O)c3[nH]ccc23)c1` [Example 23, 4-(5-(3-methoxyphenoxy)-1-methyl-2-oxo-1,2-dihydropyridin-4-yl)-6-methyl-1,6-dihydro-7H-pyrrolo[2,3-c]pyridin-7-one] are 7.00 to 8.00 and 38 % Liver Blood Flow.

Take `COc1ccc(Oc2cn(C)c(=O)cc2-c2cn(C)c(=O)c3[nH]ccc23)cc1` [Example 25, 4-(5-(4-methoxyphenoxy)-1-methyl-2-oxo-1,2-dihydropyridin-4-yl)-6-methyl-1,6-dihydro-7H-pyrrolo[2,3-c]pyridin-7-one]: the pKd on BRD4 BD1 was 7.00 to 8.00. For the same compound, the “Intrinsic clearance, % Liver Blood Flow” value in the series on human liver hepatocytes is given as 38 % Liver Blood Flow. Regarding `Cn1cc(Oc2ccc(O)cc2)c(-c2cn(C)c(=O)c3[nH]ccc23)cc1=O` [Example 26, 4-(5-(4-hydroxyphenoxy)-1-methyl-2-oxo-1,2-dihydropyridin-4-yl)-6-methyl-1,6-dihydro-7H-pyrrolo[2,3-c]pyridin-7-one], on BRD4 BD1, the pKd is 7.00 to 8.00. Further, the “Intrinsic clearance, % Liver Blood Flow” value in the series on human liver hepatocytes was <34 % Liver Blood Flow.

Consider `COc1ccc(Oc2cn(C)c(=O)cc2-c2ccc(=O)n(C)c2)cc1` [Example 27, 5′-(4-methoxyphenoxy)-1,1′-dimethyl-[3,4′-bipyridine]-2′,6(1H,1′H)-dione], for which, at BRD4 BD1, the pKd is 6.00 to 7.00. Further, in the series on human liver hepatocytes, the “Intrinsic clearance, % Liver Blood Flow” value is listed as <34 % Liver Blood Flow. In the same order, the values of `Cn1cc(-c2cc(=O)n(C)cc2Oc2ccc(O)cc2)ccc1=O` [Example 28] are 6.00 to 7.00 and <34 % Liver Blood Flow. For the compound `Cn1cc(-c2cc(=O)n(C)cc2Oc2cccc(O)c2)ccc1=O` [Example 29, 5′-(3-hydroxyphenoxy)-1,1′-dimethyl-[3,4′-bipyridine]-2′,6(1H,1′H)-dione], at BRD4 BD1, the pKd is 7.00 to 8.00. Moreover, the “Intrinsic clearance, % Liver Blood Flow” value in the series on human liver hepatocytes was <34 % Liver Blood Flow.

Consider `COc1ccccc1Oc1c(-c2cn(C)c(=O)c3[nH]ccc23)ccn(C)c1=O` [Example 30, 4-(3-(2-methoxyphenoxy)-1-methyl-2-oxo-1,2-dihydropyridin-4-yl)-6-methyl-1,6-dihydro-7H-pyrrolo[2,3-c]pyridin-7-one], for which the negative-log Kd (pKd) at BRD4 BD1 is 7.00 to 8.00. Further, in the series on human liver hepatocytes, the “Intrinsic clearance, % Liver Blood Flow” value is reported as <34 % Liver Blood Flow. For `Cn1ccc(-c2cn(C)c(=O)c3[nH]ccc23)c(Oc2ccccc2O)c1=O` [Example 31, 4-(3-(2-hydroxyphenoxy)-1-methyl-2-oxo-1,2-dihydropyridin-4-yl)-6-methyl-1,6-dihydro-7H-pyrrolo[2,3-c]pyridin-7-one] the same measures were 7.00 to 8.00 and <34 % Liver Blood Flow. For `COc1cccc(Oc2c(-c3cn(C)c(=O)c4[nH]ccc34)ccn(C)c2=O)c1` [Example 32, 4-(3-(3-methoxyphenoxy)-1-methyl-2-oxo-1,2-dihydropyridin-4-yl)-6-methyl-1,6-dihydro-7H-pyrrolo[2,3-c]pyridin-7-one], on BRD4 BD1, the pKd is 7.00 to 8.00. The “Intrinsic clearance, % Liver Blood Flow” value in the series with human liver hepatocytes was <34 % Liver Blood Flow. Consider `Cn1ccc(-c2cn(C)c(=O)c3[nH]ccc23)c(Oc2cccc(O)c2)c1=O` [Example 33, 4-(3-(3-hydroxyphenoxy)-1-methyl-2-oxo-1,2-dihydropyridin-4-yl)-6-methyl-1,6-dihydro-7H-pyrrolo[2,3-c]pyridin-7-one], for which, on BRD4 BD1, the pKd is ≥ 8.00. Further, in the series on human liver hepatocytes, the “Intrinsic clearance, % Liver Blood Flow” value is reported as <34 % Liver Blood Flow. Turning to `Cn1ccc(-c2cn(C)c(=O)c3[nH]ccc23)c(Oc2ccc(O)cc2)c1=O` [Example 35, 4-(3-(4-hydroxyphenoxy)-1-methyl-2-oxo-1,2-dihydropyridin-4-yl)-6-methyl-1,6-dihydro-7H-pyrrolo[2,3-c]pyridin-7-one], the pKd at BRD4 BD1 is 7.00 to 8.00. The same measure, in the same setting: under `Cn1cc(-c2ccn(C)c(=O)c2Oc2ccccc2O)ccc1=O` [Example 36, 3′-(2-hydroxyphenoxy)-1,1′-dimethyl-[3,4′-bipyridine]-2′,6(1H,1′H)-dione] stands 6.00 to 7.00; under `Cn1cc(-c2ccn(C)c(=O)c2Oc2cccc(O)c2)ccc1=O` [Example 37, 3′-(3-hydroxyphenoxy)-1,1′-dimethyl-[3,4′-bipyridine]-2′,6(1H,1′H)-dione], 6.00 to 7.00; under `Cn1cc(-c2ccn(C)c(=O)c2Oc2ccc(O)cc2)ccc1=O` [Example 38, 3′-(4-hydroxyphenoxy)-1,1′-dimethyl-[3,4′-bipyridine]-2′,6(1H,1′H)-dione], 6.00 to 7.00.
